Patent US20260226048A1, “MULTI-CYCLIC IRAK AND FLT3 INHIBITING COMPOUNDS AND USES THEREOF” (CHILDREN'S HOSPITAL MEDICAL CENTER, priority 2023, published 2026)

How the values were obtained:
FLT3 = molecular target: T1, FLT3 (Homo sapiens, UniProt P36888); experiment: RBC HotSpot Kinase Assay, FLT3; format: biochemical; set-up: purchased Reaction Biology (RBC HotSpot); details: isolated kinase enzyme, 33P-ATP, P81 filter-binding
T1 sequence (P36888 27-993): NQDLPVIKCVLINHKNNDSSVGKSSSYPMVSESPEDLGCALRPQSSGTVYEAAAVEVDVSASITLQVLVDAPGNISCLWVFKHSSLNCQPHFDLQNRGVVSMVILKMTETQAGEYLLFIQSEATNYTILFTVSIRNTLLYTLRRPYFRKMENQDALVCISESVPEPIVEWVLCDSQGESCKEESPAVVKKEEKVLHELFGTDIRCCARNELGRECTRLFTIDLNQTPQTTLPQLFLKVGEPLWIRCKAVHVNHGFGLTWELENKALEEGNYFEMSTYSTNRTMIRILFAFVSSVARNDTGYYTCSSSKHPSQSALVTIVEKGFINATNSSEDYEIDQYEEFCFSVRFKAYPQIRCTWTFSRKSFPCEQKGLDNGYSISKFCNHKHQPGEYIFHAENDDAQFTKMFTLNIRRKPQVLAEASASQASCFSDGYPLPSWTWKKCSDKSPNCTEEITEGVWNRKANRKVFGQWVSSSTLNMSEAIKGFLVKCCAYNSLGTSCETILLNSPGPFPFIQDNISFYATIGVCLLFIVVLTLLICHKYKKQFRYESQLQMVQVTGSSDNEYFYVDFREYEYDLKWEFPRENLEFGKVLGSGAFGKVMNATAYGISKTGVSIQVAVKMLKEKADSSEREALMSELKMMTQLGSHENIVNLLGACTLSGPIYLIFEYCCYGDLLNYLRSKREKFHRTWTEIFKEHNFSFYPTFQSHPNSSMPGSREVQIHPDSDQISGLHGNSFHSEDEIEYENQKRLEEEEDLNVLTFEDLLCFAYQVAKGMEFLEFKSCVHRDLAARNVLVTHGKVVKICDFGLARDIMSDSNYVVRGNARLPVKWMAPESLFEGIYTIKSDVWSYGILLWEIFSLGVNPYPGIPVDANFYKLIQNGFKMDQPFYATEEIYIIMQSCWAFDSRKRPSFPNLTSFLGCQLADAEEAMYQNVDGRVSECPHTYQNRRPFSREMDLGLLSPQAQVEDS
Text: (§1) This assay uses the isolated kinase enzyme. […] Unlike kinase binding assays that measure competition for ATP, the HotSpot Kinase Assay is a functional assay that measures catalytic activity; as such it measures relative functional potency regardless of the mechanism of enzyme inhibition. This assay uses the form of the various enzymes that are easiest to express, which may not necessarily be the form of the enzyme that exist in the cell. (Sometimes the carboxy terminus has been truncated to aid in expression, or, if it is a receptor kinase, the enzyme itself is isolated from the other parts of the receptor that are involved in regulating kinase activity.)
(§2) The reagent used was as follows: Base Reaction buffer; 20 mM Hepes (pH 7.5), 10 mM MgCl2, 1 mM EGTA, 0.01% Brij35, 0.02 mg/ml BSA, 0.1 mM Na3VO4, 2 mM DTT, 1% DMSO. Required cofactors were added individually to each kinase reaction.

IRAK1 = molecular target: T2, IRAK1 (Homo sapiens, UniProt P51617); experiment: RBC HotSpot Kinase Assay, IRAK1; format: biochemical; details: isolated kinase enzyme, 33P-ATP, P81 filter-binding
T2 construct: purchased Reaction Biology (RBC HotSpot)
Text: as §1, §2

IRAK4 = molecular target: T3, IRAK4 (Homo sapiens, UniProt Q9NWZ3); experiment: RBC HotSpot Kinase Assay, IRAK4; format: biochemical; set-up: purchased Reaction Biology (RBC HotSpot); details: isolated kinase enzyme, 33P-ATP, P81 filter-binding
T3 sequence (Q9NWZ3 1-460): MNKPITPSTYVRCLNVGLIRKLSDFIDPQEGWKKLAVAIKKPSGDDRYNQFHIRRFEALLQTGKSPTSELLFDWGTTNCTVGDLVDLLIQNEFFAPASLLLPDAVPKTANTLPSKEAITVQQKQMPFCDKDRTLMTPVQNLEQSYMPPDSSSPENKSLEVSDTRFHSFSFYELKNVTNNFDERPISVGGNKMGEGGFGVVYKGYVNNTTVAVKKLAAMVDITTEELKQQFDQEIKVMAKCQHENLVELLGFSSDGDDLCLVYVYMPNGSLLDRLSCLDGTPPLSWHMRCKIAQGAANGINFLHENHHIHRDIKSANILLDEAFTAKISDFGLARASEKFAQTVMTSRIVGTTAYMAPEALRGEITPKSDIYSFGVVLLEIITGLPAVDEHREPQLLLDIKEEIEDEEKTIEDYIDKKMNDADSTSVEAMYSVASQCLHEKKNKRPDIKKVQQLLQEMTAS
Text: as §1, with “enzyme. This assay is very useful for determining competition of the inhibitor for ATP and/or substrates and for measuring the kinetics of enzyme inhibition.” for “enzyme.”
as §2
The reaction procedure was as follows: • 1) Substrates were prepared in freshly prepared Reaction Buffer. • 2) Any required cofactors were delivered to the substrate solution above. • 3) Kinase was delivered into the substrate solution and gently mixed. • 4) Compounds were delivered in 1000A DM into the kinase reaction mixture by Acoustic technology (Echo550; nanoliter range), followed by incubation for 20 min at room temp. • 5) 33P-ATP was delivered into the reaction mixture to initiate the reaction. • 6) The mixture was incubated for 2 hours at room temperature. • 7) Kinase activity was detected by P81 filter-binding method.

MOLM14 D835Y cells = experiment: MOLM14 D835Y cell viability assay (Cell Titer Glo); format: cell-based; details: Homo sapiens, MOLM-14, 48 h, cell viability, Cell Titer Glo, 48 hours; read-out: MOLM14 D835Y IC50
Procedure: (§3) Both cell lines have activated FLT3 receptors, each of which carry additional resistance mutations in the kinase domain (D835Y and F691L, respectively).
(§4) For viability/cytotoxicity assessments, cells were seeded into 1536-well white polystyrene tissue culture-treated Greiner plates using a Multidrop Combi dispenser (ThermoFisher), in final volume 5 μL of growth media per well, at a density of 1000 cells per well. […] Plates were incubated for 48 hours at standard incubator conditions covered by a stainless steel gasketed lid to prevent evaporation. 48 hours post compound addition, 3 μL of Cell Titer Glo (Promega) were added to each well and plates were incubated at room temperature for 15 minutes with the stainless-steel lid in place. Luminescence readings were taken using a Viewlux imager (PerkinElmer) with a 2 second exposure time per plate.

MOLM14 F691L cells = experiment: MOLM14 F691L cell viability assay (Cell Titer Glo); format: cell-based; details: Homo sapiens, MOLM-14; cell viability, Cell Titer Glo, 48 hours; read-out: MOLM14 F691L IC50
Procedure: as §3, §4

T2 sequence (P51617 whole entry): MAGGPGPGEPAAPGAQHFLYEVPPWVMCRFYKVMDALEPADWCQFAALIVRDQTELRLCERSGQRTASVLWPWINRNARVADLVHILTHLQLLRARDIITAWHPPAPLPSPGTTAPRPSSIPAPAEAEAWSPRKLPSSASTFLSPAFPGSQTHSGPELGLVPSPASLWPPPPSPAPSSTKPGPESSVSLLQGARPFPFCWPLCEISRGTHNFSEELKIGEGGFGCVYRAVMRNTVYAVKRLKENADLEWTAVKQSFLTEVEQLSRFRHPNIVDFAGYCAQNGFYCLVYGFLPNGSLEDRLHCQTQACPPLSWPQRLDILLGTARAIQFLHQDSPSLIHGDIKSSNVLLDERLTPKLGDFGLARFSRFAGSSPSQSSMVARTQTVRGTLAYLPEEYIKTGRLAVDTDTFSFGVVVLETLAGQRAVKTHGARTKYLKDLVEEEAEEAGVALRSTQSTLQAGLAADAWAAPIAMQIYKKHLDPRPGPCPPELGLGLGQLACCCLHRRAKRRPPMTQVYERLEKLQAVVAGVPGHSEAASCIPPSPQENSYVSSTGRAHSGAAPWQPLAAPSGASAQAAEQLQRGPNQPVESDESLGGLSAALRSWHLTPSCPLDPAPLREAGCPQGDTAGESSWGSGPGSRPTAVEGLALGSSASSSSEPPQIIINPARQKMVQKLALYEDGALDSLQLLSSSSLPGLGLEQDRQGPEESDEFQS

| Compound | IC50 (FLT3) [nM] | IC50 (IRAK1) [nM] | IC50 (IRAK4) [nM] | IC50 (MOLM14 D835Y cells) [nM] | IC50 (MOLM14 F691L cells) [nM] |
| --- | --- | --- | --- | --- | --- |
| FC(F)COc1cc2ncc(-c3cncc(N[C@H]4CNCC[C@@H]4F)n3)n2nc1C1CC1 [Compound 7a, 6-(6-cyclopropyl-7-(2,2-difluoroethoxy)imidazo[1,2-b]pyridazin-3-yl)-N-((3 S,4S)-4-fluoropiperidin-3-yl)pyrazin-2-amine] | < 0.5 | 73 | 2 | 10 | 20 |
| c1cc(-c2cnc3cc(OC4CC4)c(C4CC4)nn23)nc(N[C@@H]2CCCNC2)n1 [Compound 11a, (R)-4-(7-cyclopropoxy-6-cyclopropylimidazo[1,2-b]pyridazin-3-yl)-N-(piperidin-3-yl)pyrimidin-2-amine] | < 0.5 | 52 | 5 | 22 | 80 |
| F[C@H]1CNC[C@@H]1Nc1cncc(-c2cnc3cc(OC4CC4)c(C4CC4)nn23)n1 [Compound 14a, 6-(7-cyclopropoxy-6-cyclopropylimidazo[1,2-b]pyridazin-3-yl)-N-((3S,4S)-4-fluoropyrrolidin-3-yl)pyrazin-2-amine] | < 0.5 | 117 | 16 | 101 | 318 |
| c1ncc(-c2cnc3cc(OC4CC4)c(C4CC4)nn23)nc1N[C@@H]1CCCNC1 [Compound 15a, (R)-6-(7-cyclopropoxy-6-cyclopropylimidazo[1,2-b]pyridazin-3-yl)-N-(piperidin-3-yl)pyrazin-2-amine] | < 0.5 | 258 | 18 | 45 | 113 |
| COc1cc2ncc(-c3nc(N[C@H]4CNC[C@@H]4F)ncc3F)n2nc1C1CCC1 [Compound 52a, 4-(6-cyclobutyl-7-methoxyimidazo[1,2-b]pyridazin-3-yl)-5-fluoro-N-((3S,4S)-4-fluoropyrrolidin-3-yl)pyrimidin-2-amine] | < 0.5 | 0.8 | 0.9 | 3 | 45 |
| COc1cc2ncc(-c3nc(N[C@@H]4CCCNC4)ncc3F)n2nc1C1CCC1 [Compound 53a, (R)-4-(6-cyclobutyl-7-methoxyimidazo[1,2-b]pyridazin-3-yl)-5-fluoro-N-(piperidin-3-yl)pyrimidin-2-amine] | < 0.5 | 1 | < 0.5 | 1 | 10 |
| COc1cc2ncc(-c3nc(N[C@H]4CNC[C@@H]4F)ncc3F)n2nc1C1CC(C)(C)C1 [Compound 55a, 4-(6-(3,3-dimethylcyclobutyl)-7-methoxyimidazo[1,2-b]pyridazin-3-yl)-5-fluoro-N-((3S,4S)-4-fluoropyrrolidin-3-yl)pyrimidin-2-amine] | < 0.5 | 5 | 2 | 28 | 225 |
| COc1cc2ncc(-c3nc(N[C@@H]4CCCNC4)ncc3F)n2nc1C1CC(C)(C)C1 [Compound 56a, (R)-4-(6-(3,3-dimethylcyclobutyl)-7-methoxyimidazo[1,2-b]pyridazin-3-yl)-5-fluoro-N-(piperidin-3-yl)pyrimidin-2-amine] | < 0.5 | 0.7 | 2 | 8 | 71 |
| COc1cc2ncc(-c3nc(N[C@H]4CNC[C@@H]4F)ncc3F)n2nc1C1CC2(CCC2)C1 [Compound 58a, 5-fluoro-N-((3S,4S)-4-fluoropyrrolidin-3-yl)-4-(7-methoxy-6-(spiro[3.3]heptan-2-yl)imidazo[1,2-b]pyridazin-3-yl)pyrimidin-2-amine] | < 0.5 | 7 | 5 | 14 | 127 |
| COc1cc2ncc(-c3nc(N[C@H]4CNC[C@@H]4F)ncc3F)n2nc1C1CCCC1 [Compound 61a, 4-(6-cyclopentyl-7-methoxyimidazo[1,2-b]pyridazin-3-yl)-5-fluoro-N-((3S,4S)-4-fluoropyrrolidin-3-yl)pyrimidin-2-amine] | < 0.5 | < 0.5 | < 0.5 | 3 | 28 |
| COc1cc2ncc(-c3cncc(N[C@H]4CNC[C@@H]4F)n3)n2nc1C1CC(F)(F)C1 [Compound 71a, 6-(6-(3,3-difluorocyclobutyl)-7-methoxyimidazo[1,2-b]pyridazin-3-yl)-N-((3S,4S)-4-fluoropyrrolidin-3-yl)pyrazin-2-amine] | 1 | 342 | 64 | 576 |  |
| COc1cc2ncc(-c3cncc(N[C@@H]4CCCNC4)n3)n2nc1C1CC(F)(F)C1 [Compound 72a, (R)-6-(6-(3,3-difluorocyclobutyl)-7-methoxyimidazo[1,2-b]pyridazin-3-yl)-N-(piperidin-3-yl)pyrazin-2-amine] | 0.8 | 127 | 60 | 289 |  |
| COc1cc2ncc(-c3cncc(N[C@H]4CNCC[C@@H]4F)n3)n2nc1C1CC(F)(F)C1 [Compound 73a, 6-(6-(3,3-difluorocyclobutyl)-7-methoxyimidazo[1,2-b]pyridazin-3-yl)-N-((3S,4S)-4-fluoropiperidin-3-yl)pyrazin-2-amine] | < 0.5 | 129 | 12 | 204 |  |
| COc1cc2ncc(-c3ccnc(N[C@@H]4CCCNC4)n3)n2nc1C1CCC1 [Compound 78a, (R)-4-(6-cyclobutyl-7-methoxyimidazo[1,2-b]pyridazin-3-yl)-N-(piperidin-3-yl)pyrimidin-2-amine] | < 0.5 | 75 | 7 | 29 |  |
